Experimental findings from ChEMBL document CHEMBL3734705, “Synthesis and in vitro cytotoxicity of novel C-12 substituted-14-deoxy-andrographolide derivatives as potent anti-cancer agents” (2015) are described below.

SMILES strings stand for the structures. The source made the active and inactive calls. The calls are words filed in the database; no cut-off is given here. A value given as a limit tells only on which side of the number the result lay.

Holding throughout (assay type): functional
Test [1] can be described thus: (§1) Cytotoxicity against human OVCAR5 cells assessed as growth inhibition at 10 uM after 48 hrs by SRB assay. The conditions noted are these: OVCAR-5, 48 h, read-out: GI.
Test [2] relates to OVCAR-5. The test is described as §1.
Test [3] relates to K562. Kind of test: Cytotoxicity against human K562 cells after 48 hrs by SRB assay. The settings on record: K562, 48 h.
The test system of test [4] is A549. The test is described as follows: Cytotoxicity against human A549 cells after 48 hrs by SRB assay. The settings on record: A549, 48 h.
A short description of test [5]: Cytotoxicity against human HOP62 cells after 48 hrs by SRB assay. The settings on record: HOP-62, 48 h.
The nature of test [6]: Cytotoxicity against human HCC2998 cells after 48 hrs by SRB assay. The conditions noted are these: HCC 2998, 48 h.
Test [7] can be described thus: Cytotoxicity against human SF295 cells after 48 hrs by SRB assay. The conditions noted are these: SF-295, 48 h.
A short description of test [8]: Cytotoxicity against human SF539 cells after 48 hrs by SRB assay. The settings on record: SF-539, 48 h.
The nature of test [9]: Cytotoxicity against human SNB75 cells after 48 hrs by SRB assay. The conditions noted are these: SNB-75, 48 h; for CC50: read-out: LC50 (the source's name).
Test [10] has as its system U-251. Kind of test: Cytotoxicity against human U251 cells after 48 hrs by SRB assay. The conditions noted are these: U-251, 48 h.
Test [11] has as its system M14. Kind of test: Cytotoxicity against human M14 cells after 48 hrs by SRB assay. The settings on record: M14, 48 h.
The nature of test [12]: Cytotoxicity against human OVCAR5 cells after 48 hrs by SRB assay. The settings on record: OVCAR-5, 48 h.
Test [13] can be described thus: Cytotoxicity against human RXF393 cells after 48 hrs by SRB assay. The conditions noted are these: RXF 393, 48 h.
Test [14] is described as follows: Cytotoxicity against human DU145 cells after 48 hrs by SRB assay. The conditions noted are these: DU-145, 48 h.
A short description of test [15]: Cytotoxicity against human BT549 cells after 48 hrs by SRB assay. The settings on record: BT-549, 48 h; for CC50: read-out: LC50 (the source's name).
Test [16] has as its system Malme-3M. The test is described as follows: Cytotoxicity against human MALME-3M cells after 48 hrs by SRB assay.
Test [17] concerns RXF 393. The test is described as follows: Cytotoxicity against human RXF393 cells assessed as growth inhibition at 10 uM after 48 hrs by SRB assay.
Test [18] relates to HL-60(TB). Kind of test: Cytotoxicity against human HL-60(TB) cells assessed as growth inhibition at 10 uM after 48 hrs by SRB assay.
Test [19] concerns HOP-92. Kind of test: Cytotoxicity against human HOP92 cells assessed as growth inhibition at 10 uM after 48 hrs by SRB assay.
Test [20] relates to HCC 2998. Kind of test: Cytotoxicity against human HCC2998 cells assessed as growth inhibition at 10 uM after 48 hrs by SRB assay.
Test [21] relates to SF-295. The test is described as follows: Cytotoxicity against human SF295 cells assessed as growth inhibition at 10 uM after 48 hrs by SRB assay.
Test [22] relates to IGROV-1. The test is described as follows: Cytotoxicity against human IGROV1 cells assessed as growth inhibition at 10 uM after 48 hrs by SRB assay.
Test [23] concerns SK-OV-3. The test is described as follows: Cytotoxicity against human SKOV3 cells assessed as growth inhibition at 10 uM after 48 hrs by SRB assay.
For test [24], the system named is Hs-578T. Kind of test: Cytotoxicity against human Hs578T cells assessed as growth inhibition at 10 uM after 48 hrs by SRB assay.

Take `C=C1CC[C@@H]2[C@](C)(COC(C)=O)[C@H](OC(C)=O)CC[C@@]2(C)[C@@H]1CC(NCCCCCCCC)C1=CCOC1=O` (mixture of isomers): the inhibition of growth at 10 µM in test [1] was determined as 6.77%.
For the molecule `C=C1CC[C@@H]2[C@](C)(COC(C)=O)[C@H](OC(C)=O)CC[C@@]2(C)[C@@H]1CC(NC1CCCC1)C1=CCOC1=O` (stereo not given in full), in test [2], the “growth inhibition (GI)” value is “inactive”.
On to `C=C1CC[C@@H]2[C@](C)(COC(C)=O)[C@H](OC(C)=O)CC[C@@]2(C)[C@@H]1CC(Nc1ccc(S(=O)(=O)NC(C)=O)cc1)C1=CCOC1=O` (mixture of isomers), for which the GI50 was determined as 2.58 µM in test [3]; 8.41 µM in [4]; 10.8 µM in test [5]; 7.51 µM in test [6]; 11.5 µM in test [7]; 2.39 µM in test [8]. Further, the GI50 in test [9] came out at 3.08 µM; in test [10], 3.49 µM; in [11], 2.86 µM; in [12], 4.82 µM; in test [13] it was 1.96 µM; in [14] it was 2.8 µM. Moreover, halving of growth in [15] (GI50) required 2.32 µM. In test [3], this molecule had an LC50 (50% lethal concentration) greater than 75 µM. The TGI in test [3] came to 17.6 µM; in [4], 18.3 µM; in test [5] it was 21.1 µM; in test [6] it was 17.3 µM; in test [7], 22 µM; in test [8], 7.77 µM. Further, the TGI was found to be 12.7 µM in test [9]; 12 µM in [10]; 11.9 µM in test [11]; 15.4 µM in test [12]; 4.69 µM in [13]; 9.74 µM in test [14]. The molecule further showed a TGI in [15] of 7.93 µM. For the same molecule, the LC50 came to 40 µM in [4]; 41.1 µM in [5]; 40.1 µM in test [6]; 42.2 µM in test [7]; 26.9 µM in [8]; 45.8 µM in test [11]. The CC50 was 30.9 µM in [9] and 25.1 µM in [15]. The molecule also gave an LC50 (concentration giving 50% net cell kill) in [10] of 30.8 µM. Moreover, the LC50 (concentration causing 50% net cell kill) was 39.5 µM in test [12] and 18.8 µM in [13]. The molecule further gave an LC50 (concentration killing 50% of cells) in test [14] of 27 µM.
As for `C=C1CC[C@@H]2[C@](C)(COC(C)=O)[C@H](OC(C)=O)CC[C@@]2(C)[C@@H]1CC(NCc1ccccc1)C1=CCOC1=O` (mixture of isomers), the “growth inhibition (GI)” value in [2] is “inactive”.
For the molecule `C=C1CC[C@@H]2[C@](C)(COC(C)=O)[C@H](OC(C)=O)CC[C@@]2(C)[C@@H]1CC(Sc1ccccc1)C1=CCOC1=O` (mixture of isomers), the GI50 stood at 0.69 µM in test [3]; 2.73 µM in [4]; 2.89 µM in [5]; 2.1 µM in test [6]; 4.12 µM in test [7]; 1.3 µM in test [9]. In addition, the GI50 in [10] turned out to be 1.56 µM; in test [16], 1.74 µM; in test [11], 1.47 µM; in test [12] it was 2.46 µM; in test [13] it was 1.62 µM; in test [14], 1.41 µM. The molecule further came in with a GI50 in [15] of 1.59 µM. The molecule also yielded an LC50 (50% lethal concentration) in test [3] of 45.7 µM. Moreover, the TGI in test [3] was 3.69 µM; in test [4], 7.77 µM; in [5] it was 5.53 µM; in test [6], 4.08 µM; in test [7], 27.3 µM; in [9], 2.9 µM. Further, the TGI came to 2.96 µM in [10]; 3.63 µM in [16]; 3.69 µM in [11]; 4.67 µM in test [12]; 3.12 µM in test [13]; 2.74 µM in test [14]. This molecule came in with a TGI in [15] of 3.99 µM. In addition, the LC50 is greater than 100 µM in test [4]; 14.7 µM in test [5]; 7.89 µM in test [6]; greater than 100 µM in test [7]; 7.59 µM in [16]; 9.23 µM in test [11]. Moreover, the CC50 is 6.47 µM in test [9] and greater than 100 µM in test [15]. This molecule also displayed an LC50 (concentration giving 50% net cell kill) in test [10] of 5.62 µM. The LC50 (concentration causing 50% net cell kill) in test [12] was determined as 8.89 µM; in test [13], 6.01 µM. Moreover, in test [14], the LC50 (concentration killing 50% of cells) stood at 5.33 µM.
For `C=C1CC[C@@H]2[C@](C)(COC(C)=O)[C@H](OC(C)=O)CC[C@@]2(C)[C@@H]1CC(NCCCC)C1=CCOC1=O` (mixture of isomers), in test [1], the inhibition of growth at 10 µM was 4.96%. Further, the “growth inhibition (GI)” value in test [17] was “inactive”.
For `C=C1CC[C@@H]2[C@](C)(CO)[C@H](O)CC[C@@]2(C)[C@@H]1C/C=C1/C(=O)OC[C@H]1O` [ANDROGRAPHOLIDE], the “growth inhibition (GI)” value in [18], in [19], in test [20], in test [21], in [22] and in test [2] was “inactive” throughout. The “growth inhibition (GI)” value in test [23], in test [17] and in test [24] was “inactive” each time.
In the case of `C=C1CC[C@@H]2[C@](C)(COC(C)=O)[C@H](OC(C)=O)CC[C@@]2(C)[C@@H]1CC(NCc1ccc(F)cc1)C1=CCOC1=O` (mixture of isomers), the inhibition of growth at 10 µM in [1] was 1%.
On the same count and under the same terms, in the case of `C=C1CC[C@@H]2[C@](C)(COC(C)=O)[C@H](OC(C)=O)CC[C@@]2(C)[C@@H]1CC(NCc1cccc(Cl)c1)C1=CCOC1=O` (mixture of isomers) it was 0.31%.
As for `C=C1CC[C@@H]2[C@](C)(COC(C)=O)[C@H](OC(C)=O)CC[C@@]2(C)[C@@H]1C/C=C1/C(=O)OC[C@H]1OC(C)=O`, the “growth inhibition (GI)” value in test [22], in [23] and in [24] was “inactive” throughout. In addition, the inhibition of growth at 10 µM in [1] was found to be 46.3%. Further, the GI50 in test [3] turned out to be 2.63 µM; in test [4], 11.9 µM; in test [5], 4.4 µM; in test [6], 12.2 µM; in test [7], 13.3 µM; in test [8], 1.7 µM. The GI50 in test [9] is 2.83 µM; in [10] it was 6.09 µM; in [16] it was 2.97 µM; in [11] it was 2.22 µM; in test [12], 1.93 µM; in test [13], 1.95 µM. The GI50 was 4.47 µM in test [14] and 2.29 µM in test [15]. In test [3], this molecule yielded an LC50 (50% lethal concentration) greater than 100 µM. Moreover, the TGI in [3] came out at 32.1 µM; in test [4], 30.7 µM; in [5] it was 21.3 µM; in [6] it was 27.3 µM; in [7], 26.8 µM; in test [8], 3.22 µM. For the same molecule, the TGI in test [9] came out at 14.2 µM; in test [10] it was 19.3 µM; in test [16], 7.95 µM; in test [11], 6.48 µM; in test [12], 3.92 µM; in test [13], 4.13 µM. The TGI in test [14] turned out to be 14.7 µM; in test [15], 5.63 µM. The LC50 in test [4] was 79.3 µM; in test [5], greater than 100 µM; in [6], 61.2 µM; in test [7], 54.2 µM; in test [8] it was 6.08 µM; in test [16], 29.9 µM. In addition, the LC50 in test [11] is 26.5 µM. Besides, the results for the CC50 in [9] and in test [15] were 37.6 µM and 18.8 µM, respectively. The molecule further yielded an LC50 (concentration giving 50% net cell kill) in test [10] of 48.6 µM. The LC50 (concentration causing 50% net cell kill) in test [12] came to 7.97 µM; in test [13], 8.75 µM. Besides, in [14], the LC50 (concentration killing 50% of cells) was found to be 38.4 µM.
